The results in this text go back to ChEMBL document CHEMBL3351697, “Recent advances in the structural library of functionalized quinazoline and quinazolinone scaffolds: synthetic approaches and multifarious applications” (Eur J Med Chem, 2014).

The structures appear in SMILES notation. Converted amounts (≈) assume the structure as drawn. Bounds are passed on as bounds.

One data set deals with Rattus norvegicus. Kind of data set: Antiinflammatory activity in rat assessed as inhibition of carrageenan-induced paw edema at 25 to 200 mg/kg, po administered 1 hr before carrageenan challenge measured at 6 hrs. Details: scale not given: the % may be the effect or the level left. The note with it: dose mg/kg 25-200. Type of data set: functional. In general terms: In the carrageenan paw model, swelling and tenderness develop within hours.

Another data set deals with RAW264.7. The experiment in a line: Antiinflammatory activity in mouse RAW264.7 cells assessed as inhibition of LPS-induced nitric oxide production at 20 ug/ml after 24 hrs by Griess method. It is filed as functional. To be noted: RAW264.7, 24 h.
In data set [1] the test system is MCF7. The experiment in a line: Potency index, ratio of cisplatin IC50 to compound IC50 for human MCF7 cells. It is filed as functional.
Data set [2] can be described thus: Cytotoxicity against human HCT116 cells assessed as cell viability after 24 hrs by MTT assay. Type of data set: functional, cell-based. To be noted: HCT-116, 24 h. (Formazan colour is commonly taken as a measure of viable cells.)
The test system of another data set is HepG2. The experiment in a line: Cytotoxicity against human HepG2 cells assessed as cell viability after 24 hrs by MTT assay. Type of data set: functional, cell-based. To be noted: HepG2, 24 h.
For data set [3], the system named is MCF7. The experiment in a line: Antiproliferative activity against human MCF7 cells after 48 hrs by SRB assay. Type of data set: functional, cell-based.
Data set [4] has as its target Proto-oncogene tyrosine-protein kinase Src (Homo sapiens, UniProt P12931). Kind of data set: Inhibition of c-Src (unknown origin).
The test system of the next data set is A549. Kind of data set: Antiproliferative activity against human A549 cells. Type of data set: functional, cell-based.
Data set [5] relates to Mycobacterium tuberculosis. Kind of data set: Antitubercular activity against Mycobacterium tuberculosis H37Rv assessed as growth inhibition. It is filed as functional.
Data set [6] in a line: Protective index, ratio of neurotoxicity in mouse by rotarod test to ED50 for inhibition of maximal electroshock-induced seizures in mouse. It is filed as toxicity, organism-based. The note with it: in vivo, read-out: PI. (In general: The rotarod test checks motor coordination on a turning rod.)
Data set [7] in a line: Antiproliferative activity against human HSC3 cells. Type of data set: functional, cell-based. The note with it: HSC-3.
Data set [8] can be described thus: Antiproliferative activity against human Hep3B cells. It is filed as functional, cell-based, Hep 3B2.
Data set [9] in a line: Antiproliferative activity against human CH27 cells. Type of data set: functional, cell-based.
Data set [10] can be described thus: Antiproliferative activity against human H460 cells. Type of data set: functional, cell-based. To be noted: NCI-H460.
Another data set has as its system M21. The experiment in a line: Antiproliferative activity against human M21 cells. It is filed as functional, cell-based.
The next data set deals with Escherichia coli. The experiment in a line: Antibacterial activity against Escherichia coli MTCC 443 assessed as growth inhibition at 100 ug/ml by agar well diffusion method. It is filed as functional. The note with it: read-out: GI.
The next data set relates to Pseudomonas aeruginosa. The experiment in a line: Antibacterial activity against Pseudomonas aeruginosa MTCC 741 assessed as growth inhibition at 100 ug/ml by agar well diffusion method. The note with it: read-out: GI. It is filed as functional.
Data set [11] has as its system Staphylococcus epidermidis. The experiment in a line: Antibacterial activity against Staphylococcus epidermidis MTCC 435 assessed as growth inhibition at 100 ug/ml by agar well diffusion method. Type of data set: functional. To be noted: read-out: GI.
The next data set has as its system Staphylococcus aureus. Kind of data set: Antibacterial activity against Staphylococcus aureus MTCC 96 assessed as growth inhibition at 100 ug/ml by agar well diffusion method. It is filed as functional. To be noted: read-out: GI.
Data set [12] deals with Vascular endothelial growth factor receptor 2 (Homo sapiens, UniProt P35968). The experiment in a line: Inhibition of VEGFR2 (unknown origin).
Vascular endothelial growth factor receptor 2, sequence (P35968 whole entry): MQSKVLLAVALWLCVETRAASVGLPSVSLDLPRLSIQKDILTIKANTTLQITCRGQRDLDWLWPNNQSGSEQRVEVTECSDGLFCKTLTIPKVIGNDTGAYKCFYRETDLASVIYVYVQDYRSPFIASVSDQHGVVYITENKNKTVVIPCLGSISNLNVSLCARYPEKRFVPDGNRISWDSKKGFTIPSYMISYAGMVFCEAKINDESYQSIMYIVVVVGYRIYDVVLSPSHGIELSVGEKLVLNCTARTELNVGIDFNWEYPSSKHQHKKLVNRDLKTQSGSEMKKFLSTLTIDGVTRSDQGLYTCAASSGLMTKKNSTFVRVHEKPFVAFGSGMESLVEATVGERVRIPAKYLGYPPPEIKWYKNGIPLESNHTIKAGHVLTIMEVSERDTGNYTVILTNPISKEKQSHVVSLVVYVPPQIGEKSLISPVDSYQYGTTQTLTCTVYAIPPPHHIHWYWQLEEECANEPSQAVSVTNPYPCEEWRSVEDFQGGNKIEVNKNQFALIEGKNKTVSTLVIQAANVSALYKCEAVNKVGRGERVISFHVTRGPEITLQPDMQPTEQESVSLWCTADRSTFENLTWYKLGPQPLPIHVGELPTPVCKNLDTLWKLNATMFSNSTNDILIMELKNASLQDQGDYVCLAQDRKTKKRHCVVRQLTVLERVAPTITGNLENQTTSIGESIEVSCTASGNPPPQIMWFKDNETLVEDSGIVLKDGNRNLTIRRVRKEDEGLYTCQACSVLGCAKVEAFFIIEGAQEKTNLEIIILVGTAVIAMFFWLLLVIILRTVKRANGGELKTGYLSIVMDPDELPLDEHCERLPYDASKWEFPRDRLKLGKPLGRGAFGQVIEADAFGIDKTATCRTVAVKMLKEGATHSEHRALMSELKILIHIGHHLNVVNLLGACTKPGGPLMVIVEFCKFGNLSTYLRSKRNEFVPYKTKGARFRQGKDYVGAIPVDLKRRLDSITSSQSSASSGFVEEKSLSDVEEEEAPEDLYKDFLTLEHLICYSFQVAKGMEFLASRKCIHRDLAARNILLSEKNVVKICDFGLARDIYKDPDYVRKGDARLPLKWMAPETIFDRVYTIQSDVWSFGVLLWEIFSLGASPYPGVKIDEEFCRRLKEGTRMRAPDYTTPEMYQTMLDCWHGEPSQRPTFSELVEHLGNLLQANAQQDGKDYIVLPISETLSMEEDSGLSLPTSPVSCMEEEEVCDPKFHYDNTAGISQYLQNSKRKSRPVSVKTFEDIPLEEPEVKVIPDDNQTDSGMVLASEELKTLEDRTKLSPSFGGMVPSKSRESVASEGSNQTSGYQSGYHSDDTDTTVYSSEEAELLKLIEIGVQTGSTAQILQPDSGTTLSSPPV
Data set [13] is described as follows: Antiproliferative activity against human PC3 cells by MTT assay. It is filed as functional, cell-based. To be noted: PC-3.
A short description of data set [14]: Antiproliferative activity against human PC3 cells at 10 uM by MTT assay. It is filed as functional. The note with it: PC-3.
In data set [15] the test system is PC-3. The experiment in a line: Induction of apoptosis in human PC3 cells at 10 uM after 72 hrs by Hoechst 33258 staining. It is filed as functional.
The test system of data set [16] is Bcap37. The experiment in a line: Antiproliferative activity against human Bcap37 cells by MTT assay. It is filed as functional, cell-based.
A short description of data set [17]: Antiproliferative activity against human BGC823 cells by MTT assay. Type of data set: functional, cell-based. To be noted: BGC-823.
Data set [18] concerns PC-3. The experiment in a line: Induction of apoptosis in human PC3 cells at 1 uM after 72 hrs by Hoechst 33258 staining. Type of data set: functional.
For data set [19], the system named is Bcap37. The experiment in a line: Antiproliferative activity against human Bcap37 cells at 10 uM by MTT assay. It is filed as functional.
The nature of data set [20]: Antiproliferative activity against human BGC823 cells at 10 uM by MTT assay. Type of data set: functional. To be noted: BGC-823.
Data set [21] deals with MCF7. The experiment in a line: Antiproliferative activity against human MCF7 cells.
A further data set has as its system SNB-75. The experiment in a line: Growth inhibition of human SNB75 cells after 48 hrs by SRB assay. Type of data set: functional. The note with it: SNB-75, 48 h.
The nature of data set [22]: Antiproliferative activity against human NCI60 cells. It is filed as functional.
A short description of data set [23]: Inhibition of Mycobacterium tuberculosis GlmU.
Data set [24] can be described thus: Inhibition of alpha-glucosidase (unknown origin). Set-up: species or system Homo sapiens.

Usually inhibition stands for the drop in the measured response relative to a control, in per cent. As usually defined, the IC50 is the midpoint of a concentration-inhibition curve. The term GI50 denotes the concentration that inhibits growth by half.

Proto-oncogene tyrosine-protein kinase Src, sequence (P12931 2-536 limits assumed): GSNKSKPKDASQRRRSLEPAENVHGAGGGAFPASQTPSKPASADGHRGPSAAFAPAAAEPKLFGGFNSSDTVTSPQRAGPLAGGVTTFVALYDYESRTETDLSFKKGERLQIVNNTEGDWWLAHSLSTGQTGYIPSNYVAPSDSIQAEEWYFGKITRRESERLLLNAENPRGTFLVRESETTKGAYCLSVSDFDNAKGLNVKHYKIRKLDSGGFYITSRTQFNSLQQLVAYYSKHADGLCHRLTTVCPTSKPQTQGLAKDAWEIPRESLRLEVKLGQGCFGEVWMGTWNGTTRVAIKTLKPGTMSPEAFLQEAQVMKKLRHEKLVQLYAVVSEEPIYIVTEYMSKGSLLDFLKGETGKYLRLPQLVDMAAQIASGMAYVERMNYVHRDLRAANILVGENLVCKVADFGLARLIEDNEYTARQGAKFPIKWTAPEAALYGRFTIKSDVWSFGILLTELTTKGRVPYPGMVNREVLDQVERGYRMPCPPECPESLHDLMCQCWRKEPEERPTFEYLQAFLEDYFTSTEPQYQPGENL

For the compound `CC(=O)NS(=O)(=O)c1ccc(-n2c(C)nc3c(I)cc(I)cc3c2=O)cc1`, in the data set with Rattus norvegicus, the Activity was determined as 74%.
On to `CCn1c(=O)c2ccccc2n2nc(SC)nc12`, for which the inhibition at 20 µg/mL with RAW264.7 came to 50%.
For `N#Cc1c(F)c(F)c2nc(-c3ccc(C(F)(F)F)cc3)nc(N)c2c1F`, in the data set with MCF7 [1], the “Ratio IC50” value was “<=40”.
As to `CCOc1nc2nc(SC)nn2c2ccccc12`, the IC50 in [2] was 17.4 µg/mL (≈ 66.8 µM); with HepG2, 19.2 µg/mL (≈ 73.8 µM).
Regarding `O=C1CCC(=O)N1n1c(COc2ccccc2)nc2ccc(I)cc2c1=O`, in the data set on MCF7 [3], it took 5490 nM to reach half-maximal inhibition (IC50).
Consider `O=C(Cc1cccc(Br)c1)Nc1ccc2ncnc(Nc3ccc(Br)cc3)c2c1`, for which the IC50 in data set [4] is 27.3 nM; with A549, 3420 nM.
With `NNC(=O)c1ccncc1` [ISONIAZID], the “growth inhibition (GI)” value in [5] was 99%.
On to `Nc1nnc2c3ccccc3nc(-c3ccccc3Br)n12`, for which, in data set [6], the selectivity ratio came out at 5.8.
As for `COc1ccc2nc(-c3ccc4ccccc4c3)[nH]c(=O)c2c1`, the IC50 amounted to 150 nM in data set [7]; 1940 nM in data set [8]; 90 nM in [9]; 70 nM in data set [10]; 90 nM in the data set with M21.
Take `Cc1nc2c(I)cc(I)cc2c(=O)n1-c1ccc(S(=O)(=O)Nc2ncccn2)cc1`: the inhibition of growth at 100 µg/mL (in the data set on Escherichia coli; in the data set on Pseudomonas aeruginosa; in [11]; with Staphylococcus aureus) was 61.9% in each case.
In turn, `O=C(Nc1ccc(Nc2ccc([N+](=O)[O-])c3ncnc(O)c23)cc1)Nc1ccc(C(F)(F)F)cc1Cl` registered a 50% inhibitory concentration (IC50) in data set [12] of 12 nM.
For the compound `COc1cc2ncnc(Nc3cccc(Br)c3)c2cc1OC`, the 50% inhibitory concentration (IC50) in [13] was 8300 nM.
As to `COc1cc2ncnc(NCCc3ccccc3F)c2c(OC)c1OC`, the inhibition at 10 µM in data set [14] amounted to 90.6%; in the data set with Bcap37 [19], 90.4%; in data set [20] it was 88.2%. Also, the Activity turned out to be 31.8% in the data set with PC-3 [15] and 11.6% in the data set with PC-3 [18]. In addition, the values for the IC50 (in the data set with Bcap37 [16]; in [17]; in [13]) were 3100 nM, 3200 nM and 6200 nM, respectively.
In the data set with MCF7 [21], `COc1cc2nccc(Oc3ccc(NC(=O)Nc4cc(C)on4)c(Cl)c3)c2cc1OC` [TIVOZANIB] returned a concentration for half-maximal inhibition (IC50) of 380 nM.
As to `O=c1c2ccc(Cl)cc2nc(-c2ccccc2)n1/N=C/c1ccc(Cl)cc1`, in the data set with SNB-75, the GI50 was 2570 nM. Besides, in the data set on SNB-75 (read-out: pLC50 (the source's name) (converted)), the CC50 is 39800 nM. Besides, in the data set with SNB-75 (read-out: pTGI (converted)), the TGI was 7590 nM.
Take `COc1cc2c(=O)n(-c3ccccc3)c(=O)[nH]c2cc1NC(=O)NCCc1ccccc1Cl`: the 50% growth inhibitory concentration (GI50) in [22] was 794 nM.
In turn, `COc1cc2ncnc(Nc3ccc(NC(=O)c4cccc(O)c4)cc3)c2cc1OC` showed a 50% inhibitory concentration (IC50) in data set [23] of 74000 nM.
In the case of `CSc1nc2n(n1)c1ccccc1c1nnc(-c3ccncc3)n12`, the half-maximal inhibitory concentration (IC50) was 11.5 µg/mL (≈ 34.5 µM) in [2] and 9.34 µg/mL (≈ 28 µM) with HepG2.
Compound `O=c1c2cc(Br)cc(Br)c2nc(-c2ccccc2)n1-c1ccc(C2=NN(c3ccccc3)C(Cc3ccccc3)C2)cc1` (centres undefined) had a half-maximal inhibitory concentration (IC50) with MCF7 [21] of 1.7 µg/mL.
Take `CO[C@H]1/C=C/O[C@@]2(C)Oc3c(C)c(O)c4c(O)c(c(/C=N/N5CCN(C)CC5)c(O)c4c3C2=O)NC(=O)/C(C)=C\C=C\[C@H](C)[C@H](O)[C@@H](C)[C@@H](O)[C@@H](C)[C@H](OC(C)=O)[C@@H]1C` [RIFAMPIN]: the “growth inhibition (GI)” value in data set [5] is on record as 99%.
As to `O=c1[nH]c(-c2ccc3ccccc3c2)nc2ccc(N3CCCC3)cc12`, the IC50 stood at 40 nM in [7]; 1350 nM in data set [8]; 50 nM in data set [9]; 80 nM in [10]; 30 nM in the data set with M21.
Consider `O=c1c2cc(-c3c(Cl)cccc3Cl)ccc2nc(C2CC2)n1Cc1cccnc1`, for which the IC50 in data set [24] was < 10000 nM.
Consider `Cc1ncc([N+](=O)[O-])n1CCOc1ncnc2ccccc12`, for which the half-maximal inhibitory concentration (IC50) in data set [12] worked out at 2.72 nM; in the data set with MCF7 [21] it was 350 nM.
The compound `COc1cc2c(=O)n(-c3ccccc3Cl)c(=O)[nH]c2cc1NC(=O)NCCc1ccccc1Cl` gave a GI50 in data set [22] of 363 nM.
As for `CSc1nc2nc(Cl)c3ccccc3n2n1`, the inhibition at 20 µg/mL in the data set with RAW264.7 was 50%.
As for `COc1cccc2c1C(=O)c1c(O)c3c(c(O)c1C2=O)C[C@@](O)(C(=O)CO)C[C@@H]3O[C@H]1C[C@H](N)[C@H](O)[C@H](C)O1` [DOXORUBICIN], the concentration for half-maximal inhibition (IC50) in the data set with MCF7 [3] worked out at 5490 nM.
As for `Cc1noc(NS(=O)(=O)c2ccc(-n3c(C)nc4c(I)cc(I)cc4c3=O)cc2)c1C`, the inhibition of growth at 100 µg/mL (with Escherichia coli; in the data set on Pseudomonas aeruginosa; in data set [11]; with Staphylococcus aureus) was 61.9% in each case.
